Test results reported in ChEMBL document CHEMBL1201862, “PubChem BioAssay data set” (2004).
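96-well plates; 48 h exposure; 5 concentrations. Endpoints by linear interpolation between flanking doses. Not reached: highest tested concentration assigned. GI50 = concentration required for 50% inhibition of growth.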 The source made the active and inactive calls. No stated cut-off is given here; in the data, active = GI50 up to about 1.1 µM and inactive = higher.

Columns and labels:
Test in all cases: NCI tumour cell line growth inhibition, 48 h
UO-31 = tested on: UO-31
SF-268 = tested on: SF-268
IGROV-1 = tested on: IGROV-1
T47D = tested on: T47D
KM12 = tested on: KM12
NCI-H460 = tested on: NCI-H460
Hs-578T = tested on: Hs-578T
NCI-H522 = tested on: NCI-H522
NCI-H23 = tested on: NCI-H23
U-251 = tested on: U-251
HL-60 = tested on: HL-60
HCT-15 = tested on: HCT-15
LOX IMVI = tested on: LOX IMVI
RPMI-8226 = tested on: RPMI-8226
HT-29 = tested on: HT-29
MDA-MB-231 = tested on: MDA-MB-231
OVCAR-4 = tested on: OVCAR-4
SR = tested on: SR
BT-549 = tested on: BT-549

| Compound | GI50 (UO-31) | GI50 (SF-268) | GI50 (IGROV-1) | GI50 (T47D) | GI50 (KM12) | GI50 (NCI-H460) | GI50 (Hs-578T) | GI50 (NCI-H522) | GI50 (NCI-H23) | GI50 (U-251) | GI50 (HL-60) | GI50 (HCT-15) [µM] | GI50 (LOX IMVI) | GI50 (RPMI-8226) | GI50 (HT-29) | GI50 (MDA-MB-231) | GI50 (OVCAR-4) | GI50 (SR) | GI50 (BT-549) |
| --- | --- | --- | --- | --- | --- | --- | --- | --- | --- | --- | --- | --- | --- | --- | --- | --- | --- | --- | --- |
| CCC(c1ccc(N(C)C)cc1)C1NC(=S)NC1=O (configuration not stated) | 96.8 µM (inactive) | > 100 µM (inactive) | 58.3 µM (inactive) | 78.3 µM (inactive) | 62.7 µM (inactive) | > 100 µM (inactive) | > 100 µM (inactive) | > 100 µM (inactive) | > 100 µM (inactive) | 86.7 µM (inactive) | 17.5 µM (inactive) | 40.2 | 97.9 µM (inactive) | 46 µM (inactive) | 57.1 µM (inactive) | > 100 µM (inactive) | 62.7 µM (inactive) | 8.11 µM (inactive) | – |
| COC(=O)c1c(C(=O)OC)c2ccccn2c1-c1cc(OC)c(Br)c(=O)o1 | > 100 µM (inactive) | > 100 µM (inactive) | > 100 µM (inactive) | > 100 µM (inactive) | > 100 µM (inactive) | > 100 µM (inactive) | 37.2 µM (inactive) | 68.7 µM (inactive) | > 100 µM (inactive) | – | > 100 µM (inactive) | > 100 | > 100 µM (inactive) | > 100 µM (inactive) | > 100 µM (inactive) | 83.8 µM (inactive) | > 100 µM (inactive) | > 100 µM (inactive) | – |
| CSC(Cc1ccc2c(c1)Sc1ccccc1O2)=[N+]1CCOCC1 | 36.8 µM (inactive) | 61.2 µM (inactive) | 48.6 µM (inactive) | 65.5 µM (inactive) | 51.4 µM (inactive) | 48.2 µM (inactive) | 30.7 µM (inactive) | – | 40.7 µM (inactive) | 48.1 µM (inactive) | 37.9 µM (inactive) | 43.5 | 80.4 µM (inactive) | 49.8 µM (inactive) | 43.9 µM (inactive) | > 100 µM (inactive) | > 100 µM (inactive) | 3.37 µM (inactive) | – |
| O=C1c2cc3c(cc2CC12Cc1ccccc1C2)CCC3 | 26.2 µM (inactive) | 34.8 µM (inactive) | 38.2 µM (inactive) | 45.9 µM (inactive) | 24.9 µM (inactive) | 25.8 µM (inactive) | 31.6 µM (inactive) | 27.4 µM (inactive) | 50.5 µM (inactive) | 37.6 µM (inactive) | 25.5 µM (inactive) | 33.9 | 18.6 µM (inactive) | 21.9 µM (inactive) | 21.5 µM (inactive) | 23.6 µM (inactive) | 50.2 µM (inactive) | 35.9 µM (inactive) | – |
| COc1cc([C@@H]2c3cc4c(cc3C[C@@H]3COC(=O)C32)OCO4)cc(OC)c1O (some centres not stated) | 0.0562 µM (active) | 0.0429 µM (active) | 0.0254 µM (active) | – | 0.0277 µM (active) | 0.032 µM (active) | – | 0.0119 µM (active) | 0.21 µM (active) | 0.0432 µM (active) | 0.0274 µM (active) | 0.0294 | 0.0426 µM (active) | 0.0269 µM (active) | 0.034 µM (active) | – | – | 0.011 µM (active) | 0.038 µM (active) |
| Cc1ccc(C)c(COCCOCn2c(=O)[nH]c(=O)c3cc(Br)ccc32)c1 | > 100 µM (inactive) | 52.6 µM (inactive) | 60.3 µM (inactive) | 74.6 µM (inactive) | > 100 µM (inactive) | > 100 µM (inactive) | – | 62.4 µM (inactive) | > 100 µM (inactive) | > 100 µM (inactive) | > 100 µM (inactive) | > 100 | > 100 µM (inactive) | – | 98.2 µM (inactive) | 66.4 µM (inactive) | 47.8 µM (inactive) | > 100 µM (inactive) | – |
| CC(C)[Si](OC1=CCCCCC12C(=O)N(C)c1ccccc12)(C(C)C)C(C)C (configuration not stated) | 21.3 µM (inactive) | 18.4 µM (inactive) | 25.1 µM (inactive) | 2.88 µM (inactive) | 18.5 µM (inactive) | 17.6 µM (inactive) | 21.6 µM (inactive) | 16.9 µM (inactive) | 19.5 µM (inactive) | 18.5 µM (inactive) | 17.1 µM (inactive) | 17.6 | 19.5 µM (inactive) | 15.1 µM (inactive) | 20.5 µM (inactive) | 22.4 µM (inactive) | 24.7 µM (inactive) | 29.9 µM (inactive) | – |
| CSc1nc2c(c(=O)n1C)N=C(c1ccccc1)[C@H](C(CC(=O)c1ccccc1)c1ccccc1)C(c1ccccc1)N2 (some centres not stated) | 15 µM (inactive) | – | > 100 µM (inactive) | – | 14.7 µM (inactive) | 9.2 µM (inactive) | – | 20.5 µM (inactive) | > 100 µM (inactive) | > 100 µM (inactive) | 5.22 µM (inactive) | > 100 | > 100 µM (inactive) | 19 µM (inactive) | > 100 µM (inactive) | > 100 µM (inactive) | 23.6 µM (inactive) | > 100 µM (inactive) | > 100 µM (inactive) |
| COc1ccc2c(c1)[n+]([O-])c(C(=O)CC(=O)C(=O)Nc1cccc(Cl)c1C)c(C)[n+]2[O-] | > 100 µM (inactive) | > 100 µM (inactive) | > 100 µM (inactive) | – | > 100 µM (inactive) | > 100 µM (inactive) | – | 26.2 µM (inactive) | > 100 µM (inactive) | > 100 µM (inactive) | 44.5 µM (inactive) | > 100 | > 100 µM (inactive) | 83.6 µM (inactive) | 83 µM (inactive) | – | > 100 µM (inactive) | 34 µM (inactive) | – |
| Cc1cn(CCCC2=NCCCN2)c(=O)[nH]c1=O | > 100 µM (inactive) | > 100 µM (inactive) | > 100 µM (inactive) | > 100 µM (inactive) | > 100 µM (inactive) | > 100 µM (inactive) | > 100 µM (inactive) | > 100 µM (inactive) | > 100 µM (inactive) | > 100 µM (inactive) | – | > 100 | > 100 µM (inactive) | 79.1 µM (inactive) | > 100 µM (inactive) | > 100 µM (inactive) | > 100 µM (inactive) | – | – |
| C=CC(C)(C)/C(=C\CO[Si](C(C)C)(C(C)C)C(C)C)C(=O)N(C)c1ccccc1I | 12.8 µM (inactive) | 11.5 µM (inactive) | 15.5 µM (inactive) | 9.98 µM (inactive) | 27.5 µM (inactive) | 13.6 µM (inactive) | 11.8 µM (inactive) | 5.62 µM (inactive) | 11 µM (inactive) | 11.5 µM (inactive) | 1.73 µM (inactive) | 16.4 | 14.3 µM (inactive) | 2.96 µM (inactive) | 13.4 µM (inactive) | 13.3 µM (inactive) | 23 µM (inactive) | 6.81 µM (inactive) | – |
| O=C1/C(=C\c2ccc([N+](=O)[O-])cc2)Sc2scc(-c3ccc(O)c(O)c3)[n+]21 | 4.72 µM (inactive) | 4.94 µM (inactive) | 5.11 µM (inactive) | 12.8 µM (inactive) | 10.9 µM (inactive) | 4.06 µM (inactive) | 14.7 µM (inactive) | 1.76 µM (inactive) | 14.9 µM (inactive) | 6.4 µM (inactive) | 2.37 µM (inactive) | 2.33 | 5.61 µM (inactive) | 2.55 µM (inactive) | 3.31 µM (inactive) | 10.9 µM (inactive) | 10.6 µM (inactive) | 2.62 µM (inactive) | – |
